From US8536196B2, “Substituted 1,3-dioxanes useful as PPAR modulators” (Evolva SA, priority 2007, dated 2013)

Tests used:
Gal4-PPARgammaLBD = biological target: T1, Gal4-PPARgammaLBD (Homo sapiens, UniProt P37231); test: PPARgamma transactivation assay (Gal4-PPARgammaLBD, UASx4-TK-luc reporter); format: cell-based; settings: 10 μM
T1 construct: expressed in transfected cells; host or cells: mouse embryonic fibroblasts (MEFs) or ME3 cells
T1 sequence (P37231 204-505): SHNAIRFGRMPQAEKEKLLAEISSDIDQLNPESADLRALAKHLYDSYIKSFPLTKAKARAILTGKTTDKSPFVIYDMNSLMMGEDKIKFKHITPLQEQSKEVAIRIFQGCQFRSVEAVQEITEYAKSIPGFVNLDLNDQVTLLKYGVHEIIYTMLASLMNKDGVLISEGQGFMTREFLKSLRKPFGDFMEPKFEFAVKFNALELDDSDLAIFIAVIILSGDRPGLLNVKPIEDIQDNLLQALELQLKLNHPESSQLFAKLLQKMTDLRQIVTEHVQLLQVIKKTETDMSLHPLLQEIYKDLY
Source text: This is an example of a transactivation assay for determining PPAR gamma modulating activity.
The UASx-4-TK-luc reporter construct (where UAS refers to “upstream activator sequence”) contains four Gal4-responsive elements. The plasmid Gal4-PPARgammaLBD encodes a Gal4-DBD-PPARgamma-LBD fusion protein (i.e. the DNA-binding domain, DBD, of Gal4 fused to the ligand-binding domain, LBD, of PPARgamma) capable of transactivating the UASx-4-TK-luc reporter plasmid by binding to the UAS. The CMV-beta-galactosidase plasmid (where CMV is cytomegalovirus) is used for normalization of experimental values.
The cells were replated, typically in 24 well plates, so that at the time of transfection the cells are 50-70% confluent.
Briefly, per well in a 24 well plate, UASx4TKIuc (0.2 μg) Gal4-PPARgammaLBD (or pM-hPPARgamma-LBD; 0.1 μg) and CMV-beta-galactosidase (0.05 μg) in 30 μL DMEM (free of serum and antibiotics) is mixed with 30 μL DMEM (free of serum and antibiotics) containing 1 μL metafectenein. The mixture is incubated at room temperature for 20 min to allow formation of nucleic acid-lipid complexes and then approximately 60 μL is added to each well containing the 50-60% confluent cells. […] Cells were harvested after 12-24 hours and luciferase and beta-galactosidase activities were measured according to standard protocols.
“−” means that testing was not performed.

mPPARalphaLBD = biological target: T2, mPPARalphaLBD (Mus musculus, UniProt P23204); test: PPARalpha transactivation assay; format: cell-based
T2 construct: expressed in transfected cells
T2 sequence (P23204 239-466 limits assumed): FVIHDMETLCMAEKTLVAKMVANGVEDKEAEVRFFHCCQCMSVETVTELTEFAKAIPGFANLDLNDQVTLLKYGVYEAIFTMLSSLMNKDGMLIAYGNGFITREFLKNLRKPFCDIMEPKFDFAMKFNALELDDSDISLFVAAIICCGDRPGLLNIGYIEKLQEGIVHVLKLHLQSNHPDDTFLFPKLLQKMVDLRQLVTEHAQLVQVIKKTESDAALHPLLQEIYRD
Procedure: This example describes a transactivation assay for determining PPARalpha modulating activity.
DPD and other ligands are tested for their ability to transactivate PPARalpha essentially as described in Example 22.

human pre-adipocytes = test: Adipocyte differentiation assay using human pre-adipocytes; format: cell-based
PPARgamma (h) = biological target: T3, PPARgamma (h) (Homo sapiens, UniProt P37231); test: Human recombinant (E. coli) PPARgamma (h) binding assay; settings: [3H]-rosiglitazone 10 nM, 120 min at 4° C.
T3 construct: host or cells: E. coli
T3 sequence (P37231 1-505): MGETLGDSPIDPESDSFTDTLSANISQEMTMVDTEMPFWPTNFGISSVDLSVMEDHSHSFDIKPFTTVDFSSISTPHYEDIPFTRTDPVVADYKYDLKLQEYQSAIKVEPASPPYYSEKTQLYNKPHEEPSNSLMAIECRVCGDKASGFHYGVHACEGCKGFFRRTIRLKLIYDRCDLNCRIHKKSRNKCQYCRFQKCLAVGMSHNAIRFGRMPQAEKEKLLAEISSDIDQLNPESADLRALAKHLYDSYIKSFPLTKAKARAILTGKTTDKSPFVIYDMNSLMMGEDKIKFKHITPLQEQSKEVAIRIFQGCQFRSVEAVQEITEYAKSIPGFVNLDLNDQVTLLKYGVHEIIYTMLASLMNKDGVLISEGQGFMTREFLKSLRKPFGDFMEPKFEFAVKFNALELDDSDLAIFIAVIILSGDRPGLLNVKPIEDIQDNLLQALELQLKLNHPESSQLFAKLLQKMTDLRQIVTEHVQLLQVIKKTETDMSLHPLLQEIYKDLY
Procedure: The results are expressed as a percent of control specific binding ((measured specific binding/control specific binding)×100) obtained in the presence of the test compounds. The IC50 values (concentration causing a half-maximal inhibition of control specific binding) and Hill coefficients (nH) were determined by non-linear regression analysis of the competition curves generated with mean replicate values using Hill equation curve fitting (Y=D+[(A D)/(1+(C/C50)nH)], where Y=specific binding, D=minimum specific binding, A=maximum specific binding, C=compound concentration, C50=IC50, and nH=slope factor). This analysis was performed using a software developed at Cerep (Hill software) and validated by comparison with data generated by the commercial software SigmaPlot® 4.0 for Windows® (© 1997 by SPSS Inc.). The inhibition constants (Ki) were calculated using the Cheng Prusoff equation (Ki=IC50/(1+(L/KD)), where L=concentration of radioligand in the assay, and KD=affinity of the radioligand for the receptor).

Compound: O=C(O)CC/C=C\CC1COC(c2ccccc2Cl)OC1c1ccccc1O (racemic) [SN1, (Z)-6-(-2-(2-chlorophenyl)-4-(2-hydroxyphenyl)-1,3-dioxan-5-yl)hex-4-enoic acid]
- PPAR transactivation higher than with DMSO alone (Gal4-PPARgammaLBD): about 10 fold
- increase in PPARalpha transactivation (mPPARalphaLBD): no transactivation
- red staining (Oil Red O), human pre-adipocytes (human pre-adipocytes): very little red staining, similar to DMSO
- IC50 (PPARgamma (h)): 21 µM
